Results on twelve compounds are retold here after BindingDB's records for patent US11098029 (Merck Sharp & Dohme, 2021).

SMILES strings stand for the structures.

The experiment deals with T1, Orexin receptor type 2 (Homo sapiens, UniProt O43614).
T1 sequence (O43614 whole entry): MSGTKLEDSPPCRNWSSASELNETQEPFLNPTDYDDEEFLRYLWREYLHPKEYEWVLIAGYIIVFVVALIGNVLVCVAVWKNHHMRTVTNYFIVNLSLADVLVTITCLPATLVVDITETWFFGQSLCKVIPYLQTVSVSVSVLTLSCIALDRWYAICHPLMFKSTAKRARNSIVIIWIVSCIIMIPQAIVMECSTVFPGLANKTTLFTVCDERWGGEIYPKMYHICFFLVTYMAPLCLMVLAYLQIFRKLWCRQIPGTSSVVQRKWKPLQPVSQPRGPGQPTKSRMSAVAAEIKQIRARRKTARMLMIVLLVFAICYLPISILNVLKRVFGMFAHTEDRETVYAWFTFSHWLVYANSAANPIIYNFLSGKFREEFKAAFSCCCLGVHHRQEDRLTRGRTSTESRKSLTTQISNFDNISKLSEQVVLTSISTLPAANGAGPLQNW
The experiment can be described thus: Receptor Activity Assay. The protocol: In a typical experiment, the OX1 and OX2 receptor agonist activity is determined in accordance with the following general experimental method.
By IC50 is commonly meant the concentration at which inhibition is half-maximal. In the case of `COC(=O)N1[C@H](C)C[C@H](NS(C)(=O)=O)[C@@H]1COC1CCC(CC(F)(F)F)CC1` (some centres not stated) [US11098029, Example 12], the IC50 was 390 nM. Under `CNS(=O)(=O)N[C@H]1C[C@@H](C)N(C(=O)OCC(F)F)[C@H]1COC1CCC(C(C)C)CC1` (some centres not stated) [US11098029, Example 13] stands 1.9 nM. Then `COC(=O)N1[C@H](C)C[C@H](NS(C)(=O)=O)[C@@H]1COC1CCC(C(C)C)CC1` (some centres not stated) [US11098029, Example 3], with 19.3 nM; and `CC(C)OC(=O)N1[C@H](C)C[C@H](NS(C)(=O)=O)[C@@H]1COC1CCC(C(C)C)CC1` (some centres not stated) [US11098029, Example 5], with 227 nM; and `COC(=O)N1[C@H](C)C[C@H](NS(=O)(=O)N(C)CCS(C)(=O)=O)[C@@H]1COC1CCC(c2cccc(F)c2)CC1` (some centres not stated) [US11098029, Example 57], with 1.6 nM. Under `CCOC(=O)N1[C@H](C)C[C@H](NS(=O)(=O)N(C)C)[C@@H]1COC1CCC(C(C)C)CC1` (some centres not stated) [US11098029, Example 8] stands 9.52 nM; under `CC(C)C1CCC(OC[C@H]2[C@@H](NS(C)(=O)=O)C[C@@H](C)N2C(=O)OCC(F)F)CC1` (some centres not stated) [US11098029, Example 9], 8.57 nM; under `CC[C@@H]1C[C@H](NS(C)(=O)=O)[C@H](CO[C@H]2CC[C@@H](c3ccccc3)CC2)N1C(=O)OC` (racemic) [US11098029, Example 43], 8.1 nM. For the compound `CC(C)C1CCC(OC[C@H]2[C@@H](NS(C)(=O)=O)C[C@@H](C)N2C(=O)OCCF)CC1` (some centres not stated) [US11098029, Example 10], 69.3 nM corresponded to half-maximal inhibition (IC50). Then `COC(=O)N1[C@H](C)C[C@H](NS(=O)(=O)N(C)C)[C@@H]1COC1CCC(C(F)(F)F)CC1` (some centres not stated) [US11098029, Example 11], with 264 nM; and `CC(C)C1CCC(OC[C@H]2[C@@H](NS(=O)(=O)N(C)C)C[C@@H](C)N2C(=O)OCC(F)F)CC1` (some centres not stated) [US11098029, Example 14], with 2.5 nM. As to `CCNC(=O)N1[C@H](C)C[C@H](NS(C)(=O)=O)[C@@H]1COC1CCC(C(F)(F)F)CC1` (some centres not stated) [US11098029, Example 2], it took 117 nM to reach half-maximal inhibition (IC50). This IC50 is about 47-fold higher than that of the compound before.
